In patent US20080318970A1, “Treatment of Infectious Diseases” (priority 2004, published 2008):
Values after ≈ are worked out from the molar mass of the structure shown.

Experiments:
E. coli, LN 3164 = test: Effect of chemosensitising compounds on DR (DR ratio) with ciprofloxacin, microtiter assay; assay type: cell-based; conditions: MIC ciprofloxacin alone / MIC ciprofloxacin + chemosensitising compound at ¼ of its MIC; E. coli LN 3164
Description: The effects of the chemosensitising compounds on DR were studied by the microtiter assay described above by exposing cells to 0-64 μg/ml anti-infective drug in the absence or presence of chemosensitising compound. Each experiment was repeated in tripleduplicate. MIC values represent the mean values of two separate experiments.
A log phase culture of bacteria was diluted with fresh pre-warmed medium and adjusted to a defined OD at 600 nm in order to give a final concentration of 1×10^4 bacteria/ml medium in each well. […] Anti-infective agent was added to the bacterial culture in the wells in two-fold dilutions in order to give final concentrations ranging from 0 to 64 μg/ml. Trays were incubated at 37° C. for 16 h. The DR ratio was defined as the ratio between the MIC value for anti-infective agent alone divided by the MIC for the anti-infective agent in the presence of the chemosensitising compound. This ratio represents the increase in apparent potency of the anti-infective agent caused by the chemosensitising compound, and may be expressed as
DR ratio=(MICanti-infective agent)/(MICanti-infective agent+chemosensitising compound)

S. aureus E45 = test: Checkerboard combination study (FIC index); assay type: cell-based, Staphylococcus aureus; conditions: isolate resistant (R)
Description: Staphylococcus aureus E45 MRSA. Clinical isolate. Resistant to methicillin. Susceptible to teicoplanin chloramphenicol, fosfomycin, netilmicin and vancomycin.
(§1) The synergistic effect was studied by checkerboard combination studies exposing cells to 0-64 μg/ml anti-infective agent in the absence or presence of trans-flupenthixol, cis-flupenthixol or trans-clopenthixol. Each experiment was repeated in tripleduplicate. MIC values represent the mean values of two separate experiments,
(§2) A log phase culture of bacteria was diluted with fresh pre-warmed medium and adjusted to a defined OD at 600 nm in order to give a final concentration of 1×10^4 bacteria/ml medium in each well. Each chemosensitising compound was added to the bacterial culture in the wells in two-fold dilutions in order to give final concentrations ranging from 0 to 8 μg/ml. Anti-infective agent was added to the bacterial culture in the wells in two-fold dilutions in order to give final concentrations ranging from 0 to 64 μg/ml Trays were incubated at 37° C. for 16 h. Wells were assessed visually for growth. The Fractional Inhibitory Concentration (FIC) was calculated for each anti-infective agent alone and in combination with trans-flupenthixol, cis-flupenthixol or trans-clopenthixol. The following formulae were used to calculate the FIC index:
(§3) FIC=FICchemosensitising compound+FICanti-infective agent
(§4) FICchemosensitising compound=(MICchemosensitising compound+anti-infective agent)/(MICchemosensitising compound)
(§5) FICanti-infective agent=(MICanti-infective agent+chemosensitising compound/(MICanti-Infective agent)
(§6) Synergy was defined as a FIC index of <0.5.

S. aureus O11 [1] = test: Checkerboard combination study (FIC index); assay type: cell-based, Staphylococcus aureus; conditions: anti-infective agent Dicloxacillin; isolate susceptible (S)
Description: Staphylococcus aureus O11. Clinical isolate resistant to penicillin. Susceptible to methicillin, tetracycline, beta-lactams, fluoroquinolones, chloramphenicol and aminoglycosides.
as §1, §2, §3, §4, §5, §6

S. aureus O11 [2] = assay type: cell-based
[3] = test system: Enterococcus faecalis BG-029; test: MIC by microdilution test (NCCLS); assay type: cell-based; conditions: clinical isolate from human urine, resistant to ciprofloxacin
Description: A clinical isolate of Enterococcus faecalis BG-029 from human urine was used.
The MICs were determined by the microdilution test according to the NCCLS Guidelines.

[4] = test system: Enterococcus faecalis BG-029; test: Mouse peritonitis model, bacterial counts in peritoneal fluid; assay type: in vivo, NMRI mice; conditions: neutropenic mice; subcutaneous; 6 h; ciprofloxacin 12.5 mg per mouse, trans-clopenthixol 5 mg per kg, alone or combined
Description: Female NMRI mice (age, approximately 6 to 8 weeks; weight, 30±2 g) were used for the mouse […] peritonitis model (as described below). Bacterial suspensions were prepared from fresh overnight cultures (made from frozen stock cultures) on 5% blood agar plates as described above. […] The size of the inoculum was determined by viability counting on 5% blood agar. Neutropenia was introduced by pretreating the mice with cyclophosphamide (6 mg daily for three days). […] Inoculated untreated control mice were included in all trials. […] After the mice were killed, peritoneal washes were performed by injecting 2 ml of sterile saline intraperitoneally, followed by massage of the abdomen and then opening of the peritoneum to collect the fluid.

[5] = test system: Fluconazole Resistant Candida albicans; test: Checkerboard combination study on fungals, broth microdilution (NCCLS M27-A); assay type: cell-based; conditions: for FIC index: fluconazole with trans-clopenthixol
Description: The synergistic effect of Trans-clopenthixol was studied by checkerboard combination studies exposing cells to 0-256 μg/ml anti-infective agent in the absence or presence of trans-clopenthixol (0 to 8 μg/ml in two-fold dilutions). Each experiment was repeated in tripleduplicate. MIC values represent the mean values of two separate experiments.
Clinical Isolate of a Fluconazole Resistant Candida albicans from a Patient with candidemia.
The isolates were subcultured for 24 h on Sabouraud glucose agar before susceptibility testing.
Broth microdilution tests were performed according to NCCLS document M27-A (Ref: National Committee for Clinical Laboratory Standards. (1997). Reference Method for Broth Dilution Antifungal Susceptibility Testing of Yeasts: Approved Standard M27-A. NCCLS, Wayne, Pa.)
Microtitre plates were read spectrophotometrically at 530 nm, after mixing the wells by pipetting to resuspend yeast sediments.
The Fractional Inhibitory Concentration (FIC) was calculated for the anti-infective agent alone and in combination with trans-clopenthixol. The following formulae were used to calculate the FIC index:
as §3, §4
FICanti-infective agent=(MICanti-infective agent+chemosensitising compound/(MICanti-infective agent)
as §6

uninfected MT4 cells = test: Cytotoxic effect in uninfected MT4 cultures; assay type: cell-based
Description: Compounds were examined for possible antiviral activity against strain 111B of HIV-1 using MT4 cells as target cells. MT4 cells were incubated with virus (0.005 MOI) and growth medium containing the test dilutions of compound(s) for six days in parallel with virus-infected and uninfected control cultures without compound added. Expression of HIV in the cultures was indirectly quantified using the MTT assay as previously described. Compounds mediating less than 30% reduction of HIV expression were considered without biological activity. Compounds were tested in parallel for cytotoxic effect in uninfected MT4 cultures containing the test dilutions of compound as described above. Cultures for test of both antiviral activity and cytotoxic effect were set up in tripleduplicates, […] per culture in micro titre plates.
CC50 is defined as the inhibitory concentration that reduces cellular growth or viability of uninfected cells by 50%.

OCCN1CCN(CC/C=C2\c3ccccc3Sc3ccc(Cl)cc32)CC1 [trans-clopenthixol]
DR ratio (E. coli, LN 3164): 128 | FIC index (S. aureus E45; anti-infective agent Dicloxacillin): 0.06 | FIC index (S. aureus E45; anti-infective agent Fucidic acid): 0.06 | FIC index (S. aureus O11 [1]): 0.25 | Frequency on emergence of resistance (S. aureus O11 [2]; 1 μg of ciprofloxacin per ml (two times the MIC) in the presence of inhibitor (1 μg/ml)): <1 × 10^−10 | decrease of the frequency of spontaneous emergence of ciprofloxacin resistance (S. aureus O11 [2]; inhibitor 1 μg/ml): ≥ 100 fold | toxic effect of the inhibitor on S. aureus plated in the absence of ciprofloxacin (in words) (S. aureus O11 [2]; inhibitor 1 μg/ml): affected neither the colony-forming ability nor the colony size | MIC [3]: 6 µg/mL (≈ 15 µM) | bactericidal activity in mouse peritoneum (in words) [4]: did not affect the bacteria | MIC ([5]; agent alone): 32 µg/mL | FIC index [5]: < 0.5 | FIC index ([5]; listed as Trans-clopenthixol): 0.16 | effective concentrations ([5]; in combination with an anti-fungal agent): ≤ 3 µg/mL | cytotoxic effect (in words) (uninfected MT4 cells; alone, at the concentrations used): no antiviral or cytotoxic effect | CC50 (uninfected MT4 cells; compound alone, uninfected MT4): > 3000 nM
